Measurements as given in the NIST ThermoML archive (doi:10.1021/je700713q).
Numbers after ± are expanded uncertainties.

Details: Crystal; visual observation

In the case of `CC1=CC(=O)[N-]S(=O)(=O)O1.[K+]` [acesulfame potassium], the Normal melting temperature is reported as 229.00 ± 1 °C.
